In patent publication US20240368139A1, “NOVEL MODULATORS OF EHMT1 AND EHMT2 AND THERAPEUTIC USE THEREOF” (Tango Therapeutics, Inc., priority 2021, published 2024):
pIC50: −log10 of the molar value.

Legend:
[1] = target: T1, human EHMT2 913-1193 (Homo sapiens, UniProt Q96KQ7); assay: EHMT2 enzyme assay on histone peptide substrate (3H-SAM SPA); conditions: EHMT2 IC50, recombinant human EHMT2 913-1193, histone peptide substrate
T1 sequence (Q96KQ7 913-1193): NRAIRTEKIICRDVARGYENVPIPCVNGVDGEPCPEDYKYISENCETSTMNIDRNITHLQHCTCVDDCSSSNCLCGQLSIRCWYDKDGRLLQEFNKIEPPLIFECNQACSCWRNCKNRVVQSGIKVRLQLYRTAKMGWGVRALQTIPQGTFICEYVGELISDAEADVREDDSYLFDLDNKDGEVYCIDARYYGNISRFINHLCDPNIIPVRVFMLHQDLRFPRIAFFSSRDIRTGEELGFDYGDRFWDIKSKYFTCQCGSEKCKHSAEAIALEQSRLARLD

[2] = tested on: H3K9me2 in HCT116 cells; assay: HCT116 H3K9me2 in-cell western assay; type: cell-based; conditions: Homo sapiens, HCT-116, 72 h, HCT116 cells, 72 hours incubation; read-out: H3K9me2 ICW IC50
Excerpt: HCT116 cell line was purchased from ATCC (Manassas, VA, USA). […] Penicillin-Streptomycin and heat inactivated fetal bovine serum were purchased from Hyclone (Logan, UT, USA). DPBS, Corning^R were purchased from VWR (Radnor, PA, USA). Triton′ X-100 was purchased from Sigma (St. Louis, MO, USA). Intercept blocking buffer, DRAQ5, Licor Odyssey Infrared Scanner were purchased from Licor Biosciences (Lincoln, NB, USA). Plate washer was purchased from BioTek (Winooski, VT, USA). […] 16% Paraformaldehyde was purchased from Electron Microscopy Sciences (Hatfield, PA, USA). HCT116 cells were maintained in complete growth medium (RPMI supplemented with 10% heat inactivated fetal bovine serum, 1% Penicillin-Streptomycin) and cultured at 37° C. under 5% CO2. N^2-(4-methoxy-3-(3-(pyrrolidin-1-yl)propoxy)phenyl)-N^4,6-dimethyl]pyrimidine-2,4-diamine (synthesis disclosed in International Application WO2017181177A1) was used as a control compound.
HCT116 cells (ATCC) were trypsinized, counted and seeded in assay medium (RPMI supplemented with 10% heat inactivated fetal bovine serum, 1% Penicillin-Streptomycin) at a concentration of 2,000 cells per well to a 384-well cell culture plate with compounds in 50 μl per well. Plates were incubated with at 37° C. under 5% CO2 for 72 hours. After the incubation, 50 μl per well of 8% paraformaldehyde in PBS was added to the plates and incubated at room temperature for 20 minutes. Plates were transferred to a BioTek (EL406) plate washer and washed 5 times with 110 μl per well of wash buffer (1×PBS containing 0.1% Triton X-100). The plates were next blocked with 50 μl of Intercept blocking buffer for 1 hour at room temperature. Blocking buffer was removed and 30 μl per well of monoclonal primary antibody of H3K9me2 (CST) diluted 1:200 in Intercept blocking buffer were added and plates were incubated overnight at 4° C. The plates were then washed 5 times with 110 μl per well of wash buffer (1×PBS containing 0.1% Triton X-100). Next 30 μl per well of secondary was added (1:400 800 CW goat anti-rabbit IgG in blocking buffer) with 1:1000 DRAQ5 in blocking buffer and incubated for 2 hours at room temperature. The plates were washed 5 times with 110 μl per well of wash buffer (1×PBS containing 0.1% Triton X-100) then with 100 μl per well of water once. Plates were allowed to dry at room temperature then imaged on a Licor Odyssey Infrared Scanner which measured integrated intensity at 700 nm and 800 nm wavelength. Both 700 and 800 channels were scanned.
The average of the ratio values (800 nm/700 nm) for each well was calculated and used to determine the percentage for each test well in the plate. Compounds were serially diluted two-fold in 0.1% DMSO for a total of 10 test concentrations beginning at 10 μM. IC50 curves were generated using duplicate wells per concentration of compound. […] IC50 values were calculated using a non-linear regression of Prism.

[3] = target: T2, human EHMT1 982-1266 (Homo sapiens, UniProt Q9H9B1); assay: EHMT1 enzyme assay on histone peptide substrate (3H-SAM SPA); conditions: EHMT1 IC50, recombinant human EHMT1 982-1266, histone peptide substrate
T2 sequence (Q9H9B1 982-1266): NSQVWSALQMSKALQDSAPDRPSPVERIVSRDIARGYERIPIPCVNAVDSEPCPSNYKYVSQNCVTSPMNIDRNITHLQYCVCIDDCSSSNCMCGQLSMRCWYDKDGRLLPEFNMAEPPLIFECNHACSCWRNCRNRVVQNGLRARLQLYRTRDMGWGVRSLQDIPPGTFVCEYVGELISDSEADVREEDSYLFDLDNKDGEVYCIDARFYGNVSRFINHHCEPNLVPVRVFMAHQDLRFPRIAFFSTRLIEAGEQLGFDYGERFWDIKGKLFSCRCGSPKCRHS

SMILES | pIC50 [1] | pIC50 [2] | pIC50 [3]
Cc1cc(N)nc(Nc2cc3c(c(OCCCN4CCCC4)c2)OCC3)n1 [Compound 115, 6-methyl-N2-[7-(3-pyrrolidin-1-ylpropoxy)-2,3-dihydrobenzofuran-5-yl]pyrimidine-2,4-diamine] | < 5.70 | 5.70 to 6.30 | < 5.70
Cc1cc(NC2CCCC2)nc(Nc2cc3c(c(OCCCN4CCCC4)c2)OCC3)n1 [Compound 116, N4-cyclopentyl-6-methyl-N2-[7-(3-pyrrolidin-1-ylpropoxy)-2,3-dihydrobenzofuran-5-yl]pyrimidine-2,4-diamine] | < 5.70 | < 5.70 | 5.70 to 6.30
Cc1cc(NC2CCCCC2)nc(Nc2cc3c(c(OCCCN4CCCC4)c2)OCC3)n1 [Compound 117, N4-cyclohexyl-6-methyl-N2-[7-(3-pyrrolidin-1-ylpropoxy)-2,3-dihydrobenzofuran-5-yl]pyrimidine-2,4-diamine] | < 5.70 | < 5.70 | 5.70 to 6.30
Cc1cc(NC2CCC2)nc(Nc2cc3c(c(OCCCN4CCCC4)c2)OCC3)n1 [Compound 119, N4-cyclobutyl-6-methyl-N2-[7-(3-pyrrolidin-1-ylpropoxy)-2,3-dihydrobenzofuran-5-yl]pyrimidine-2,4-diamine] | < 5.70 | 5.70 to 6.30 | 5.70 to 6.30
CNc1cc(C)nc(Nc2cc(OCCCN3CCCC3)c3oc(=O)[nH]c3c2)n1 [Compound 124, 5-[[4-methyl-6-(methylamino)pyrimidin-2-yl]amino]-7-(3-pyrrolidin-1-ylpropoxy)-3H-1,3-benzoxazol-2-one] | < 5.70 | < 5.70 | 6.30 to 7.00

More lines, now with the values ahead:

pIC50 [1] | pIC50 [2] | pIC50 [3] | SMILES
5.70 to 6.30 | 6.30 to 7.00 | 5.70 to 6.30 | CNc1cc(C)nc(Nc2cc3c(c(C4CCCNCC4)c2)OCC3)n1 (stereo not drawn) [Compound 106, N2-[7-(azepan-4-yl)-2,3-dihydrobenzofuran-5-yl]-N4,6-dimethyl-pyrimidine-2,4-diamine]
5.70 to 6.30 | 6.30 to 7.00 | 6.30 to 7.00 | CNc1cc(C)nc(Nc2cc3c(c(C4CCCN(C)CC4)c2)OCC3)n1 (stereo not drawn) [Compound 107, N4,6-dimethyl-N2-[7-(1-methylazepan-4-yl)-2,3-dihydrobenzofuran-5-yl]pyrimidine-2,4-diamine]
< 5.70 | < 5.70 | < 5.70 | CNc1nc(Nc2cc3c(c(OCCCN4CCCC4)c2)OCC3)nc(C)c1F [Compound 108, 5-fluoro-N4,6-dimethyl-N2-[7-(3-pyrrolidin-1-ylpropoxy)-2,3-dihydrobenzofuran-5-yl]pyrimidine-2,4-diamine]
< 5.70 | < 5.70 | < 5.70 | CNc1nc(Nc2cc(OCCCN3CCCC3)c3occc3c2)nc(C)c1F [Compound 109, 5-fluoro-N4,6-dimethyl-N2-[7-(3-pyrrolidin-1-ylpropoxy)benzofuran-5-yl]pyrimidine-2,4-diamine]
< 5.70 | 5.70 to 6.30 | 6.30 to 7.00 | CNc1cc(C)nc(Nc2cc3c(c(OCCN4CCCC4)c2)OCC3)n1 [Compound 112, N4,6-dimethyl-N2-[7-(2-pyrrolidin-1-ylethoxy)-2,3-dihydrobenzofuran-5-yl]pyrimidine-2,4-diamine]
< 5.70 | < 5.70 | < 5.70 | CNc1cc(C)nc(Nc2cc3c(c(OCCCN4CCCC4)c2)OCC(=O)N3)n1 [Compound 114]
5.70 to 6.30 | 5.70 to 6.30 | 5.70 to 6.30 | CNc1cc(C)nc(Nc2cc3c(c(N4CCCNCC4)c2)OCC3)n1 [Compound 125, N2-[7-(1,4-diazepan-1-yl)-2,3-dihydrobenzofuran-5-yl]-N4,6-dimethyl-pyrimidine-2,4-diamine]
5.70 to 6.30 | 5.70 to 6.30 | 5.70 to 6.30 | CNc1cc(C)nc(Nc2cc3c(c(N4CCCN(C)CC4)c2)OCC3)n1 [Compound 126, N4,6-dimethyl-N2-[7-(4-methyl-1,4-diazepan-1-yl)-2,3-dihydrobenzofuran-5-yl]pyrimidine-2,4-diamine]
